Legend:
JAK3 = JAK3 (Homo sapiens (Human), UniProt P52333); experiment: JAK Caliper enzyme assay at 1 mM ATP (JAK3); format: biochemical; details: recombinant human kinase domain, Caliper mobility shift
Procedure: (§1) Compounds of the invention were evaluated by in vitro methods to determine their respective ability to inhibit the JAK kinases (TYK2, JAK1, JAK2, JAK3).
(§2) The human JAK inhibitory activity was determined by using a microfluidic assay to monitor phosphorylation of a synthetic peptide by the recombinant human kinase domain of each of the four members of the JAK family, JAK1, JAK2, JAK3 and TYK2. […] Each assay condition was optimized for enzyme concentration and room temperature incubation time to obtain a conversion rate of 20% to 30% phosphorylated peptide product. Reactions were terminated by the addition of stop buffer containing EDTA. Utilizing the LabChip 3000 mobility shift technology (Caliper Life Science), each assay reaction was sampled to determine the level of phosphorylation. This technology is separation-based, allowing direct detection of fluorescently labeled substrates and products. Separations are controlled by a combination of vacuum pressure and electric field strength optimized for each peptide substrate.
(§3) JAK Caliper Enzyme Assay at 1 mM ATP
(§4) Compounds were added to a 384-well plate. Reaction mixtures contained 10 mM HEPES, pH 7.4, 10 mM MgCl2, 0.01% BSA, 0.0005% Tween 20, 1 mM ATP and 1 μM peptide substrate. […] The assays were initiated by the addition of 20 nM JAK1, 1 nM JAK2, 1 nM JAK or 1 nM TYK2 enzyme and were incubated at room temperature for three hours for JAK1, 60 minutes for JAK2, 75 minutes for JAK3 or 135 minutes for TYK2. Enzyme concentrations and incubation times were optimized for each new enzyme preps and were modified slightly over time to ensure 20% to 30% phosphorylation. The assays were stopped with 15 μL of 180 mM HEPES, pH 7.4, 20 mM EDTA, and 0.2% Coating Reagent 3. The assay plates were placed on a Caliper Life Science LC3000 instrument, and each well was sampled using appropriate separation conditions to measure the unphosphorylated and phosphorylated peptide.
(§5) The data was collected using the HTS Well Analyzer software from Caliper Life Sciences. The data output for data analysis is the percent product converted calculated on peak height (Equation 1). % product converted=100*((product)/(product+substrate)) Equation 1: […]
(§6) The percent effect at each compound concentration was calculated based on the positive and negative control well contained within each assay plate (Equation 2). […] The negative control wells contained DMSO alone (at the same concentration as the compound wells) that was used to set the baseline activity in the assay (i.e., uninhibited JAK1, JAK2, JAK3 or TYK2). % effect=100*((sample well−negative control)/(positive control-negative control)) Equation 2: The percent effect was plotted against the compound concentration compound.

TYK2 = TYK2 (Homo sapiens (Human), UniProt P29597); experiment: JAK Caliper enzyme assay at 1 mM ATP (TYK2); format: biochemical; details: recombinant human kinase domain, Caliper mobility shift
Chain of TYK2 (P29597 897-1176): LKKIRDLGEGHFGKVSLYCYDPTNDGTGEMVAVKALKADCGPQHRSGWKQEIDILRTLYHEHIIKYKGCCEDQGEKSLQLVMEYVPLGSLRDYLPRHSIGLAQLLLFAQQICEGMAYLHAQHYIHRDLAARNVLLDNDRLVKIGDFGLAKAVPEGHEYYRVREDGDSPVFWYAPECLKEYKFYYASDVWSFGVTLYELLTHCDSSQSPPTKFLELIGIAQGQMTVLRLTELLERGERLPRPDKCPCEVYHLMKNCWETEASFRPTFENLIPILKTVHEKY
Procedure: as §1, §2, §3, §4, §5, §6

JAK1 = JAK1 (Homo sapiens (Human), UniProt P23458); experiment: JAK Caliper enzyme assay at 1 mM ATP (JAK1); format: biochemical; details: recombinant human kinase domain, Caliper mobility shift
Chain of JAK1 (P23458 875-1153): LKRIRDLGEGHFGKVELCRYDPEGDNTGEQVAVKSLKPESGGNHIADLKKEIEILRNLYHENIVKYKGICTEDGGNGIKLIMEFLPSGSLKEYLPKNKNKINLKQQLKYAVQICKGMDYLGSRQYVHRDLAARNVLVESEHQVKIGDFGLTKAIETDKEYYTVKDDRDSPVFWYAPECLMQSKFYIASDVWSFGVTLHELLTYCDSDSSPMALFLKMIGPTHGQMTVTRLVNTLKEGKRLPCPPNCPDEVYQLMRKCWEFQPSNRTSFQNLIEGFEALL
Procedure: Compounds of the invention were evaluated by in vitro methods to determine their respective ability to inhibit the JAK kinases (TYK2, JAK1, JAK2, JAK3). The human JAK inhibitory activity was determined by using a microfluidic assay to monitor phosphorylation of a synthetic peptide by the recombinant human kinase domain of each of the four members of the JAK family, JAK1, JAK2, JAK3 and TYK2. […] Reactions were terminated by the addition of stop buffer containing EDTA. Utilizing the LabChip 3000 mobility shift technology (Caliper Life Science), each assay reaction was sampled to determine the level of phosphorylation. This technology is separation-based, allowing direct detection of fluorescently labeled substrates and products. Separations are controlled by a combination of vacuum pressure and electric field strength optimized for each peptide substrate. […] Compounds were added to a 384-well plate. […] Enzyme concentrations and incubation times were optimized for each new enzyme preps and were modified slightly over time to ensure 20% to 30% phosphorylation. […] The assay plates were placed on a Caliper Life Science LC3000 instrument, and each well was sampled using appropriate separation conditions to measure the unphosphorylated and phosphorylated peptide. The data was collected using the HTS Well Analyzer software from Caliper Life Sciences. […] The percent effect at each compound concentration was calculated based on the positive and negative control well contained within each assay plate (Equation 2). […] The percent effect was plotted against the compound concentration compound. […] Where max is the maximum asymptote (complete inhibition), min is the minimum asymptote (no inhibition) and s is the slope factor.

[1] = test system: IL-12 induced STAT4 phosphorylation (IL-12 signals through TYK2 and JAK2); experiment: Human Whole Blood IL-12 Induced STAT4 Phosphorylation Assay; format: cell-based; details: Lymphocyte, IL-12 5 ng/mL, pSTAT4 in lymphocytes by flow cytometry, read-out: HWB IL-12 IC50
Procedure: Selected compounds were assessed for their ability to inhibit IL-12 signaling in a human whole blood flow cytometry assay. IL-12 signals through TYK2 and JAK2. Human Whole Blood IL-12 Induced STAT4 Phosphorylation Assay
Test articles were prepared as 30 mM stocks in DMSO. An 11-point 2.5 dilution series was created in DMSO with a top concentration of 10 mM. Further dilution was done by adding 4 μL of the above test article solutions into 96 μL of PBS with a top concentration of 400 μM. […] Blood was warmed to 37° C. prior to use. Human whole blood was aliquoted ([…]) in 96-well, deep-well, V-bottom plates and treated with compounds at 11 different concentrations (0.2% DMSO final) at 37° C. for 60 minutes. This was followed by a challenge with IL-12 ([…]; final, 5 ng/mL) for 15 minutes. Samples were treated with warm 1× Lyse/Fix buffer ([…]) to terminate activation and further incubated at 37° C. for 20 minutes to lyse red blood cells. Plates were centrifuged at 300×g for 5 minutes, supernatant was aspirated, and cells were washed with […] of staining buffer (PBS containing 0.5% fetal bovine serum and 0.01% sodium azide). The washed cell pellets were resuspended with […] of pre-chilled 90% methanol, and incubated at 4° C. for 30 minutes. Plates were centrifuged at 300×g for 5 minutes, supernatant containing 90% methanol was aspirated, and cells were washed with […]/well of staining buffer. Cell pellets were resuspended in staining buffer containing anti-pSTAT4-AlexaFluor647 (1 to 150 dilution, […]), and incubated at room temperature in the dark overnight.
Samples were transferred to 96-well U-bottom plates and flow cytometric analysis was performed on a FACSCalibur or LSRFortessa equipped with a HTS plate loader (BD Biosciences). The lymphocyte population was gated for histogram analysis of pSTAT4. Background fluorescence was defined using unstimulated cells and a gate was placed at the foot of the peak to include ˜0.5% gated population. The histogram statistical analysis was performed using CellQuestO Pro version 5.2.1 (BD Biosciences) or FACSDiva version 6.2 (BD Biosciences) software. Relative fluorescence unit (RFU), which measures the level of phospho STAT4, was calculated by multiplying the percent positive population and its mean fluorescence. Data from 11 compound concentrations (singlicate at each concentration) was normalized as a percentage of control based on the formula: % of Control=100×(A−B)/(C−B) where A is the RFU from wells containing compound and IL-12, B is the RFU from wells without IL-12 and compound (minimum fluorescence) and C is the RFU from wells containing only IL-12 (maximum fluorescence). Inhibition curves and IC50 values were determined using the Prism version 5 software (GraphPad, La Jolla, Calif.).

JAK2 = JAK2 (Homo sapiens (Human), UniProt O60674); experiment: JAK Caliper enzyme assay at 1 mM ATP (JAK2); format: biochemical; details: recombinant human kinase domain, Caliper mobility shift
Chain of JAK2 (O60674 849-1124): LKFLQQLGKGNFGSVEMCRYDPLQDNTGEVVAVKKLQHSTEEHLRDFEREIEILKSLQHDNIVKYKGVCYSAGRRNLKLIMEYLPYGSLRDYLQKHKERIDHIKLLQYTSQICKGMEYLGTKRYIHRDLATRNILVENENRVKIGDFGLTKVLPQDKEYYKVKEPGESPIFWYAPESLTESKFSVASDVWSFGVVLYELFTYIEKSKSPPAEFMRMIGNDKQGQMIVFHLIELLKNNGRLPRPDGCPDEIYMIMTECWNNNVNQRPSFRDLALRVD
Procedure: as §1, §2, §3, §4, §5, §6

Chain of JAK3 (P52333 822-1111): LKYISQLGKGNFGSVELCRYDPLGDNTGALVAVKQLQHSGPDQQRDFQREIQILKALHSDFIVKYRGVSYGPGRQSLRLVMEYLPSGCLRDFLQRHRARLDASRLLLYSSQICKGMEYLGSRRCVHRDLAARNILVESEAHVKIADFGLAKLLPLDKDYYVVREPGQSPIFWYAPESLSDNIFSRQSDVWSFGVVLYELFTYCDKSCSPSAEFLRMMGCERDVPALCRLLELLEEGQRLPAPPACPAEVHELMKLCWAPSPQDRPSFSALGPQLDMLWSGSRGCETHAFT

IC50 (JAK3)	IC50 (TYK2)	IC50 (JAK1)	IC50 [1]	IC50 (JAK2)	SMILES
> 10000 nM	24 nM	737 nM	86 nM	171 nM	CO[C@H]1C[C@@](CC#N)(n2cc(-c3nc(-c4cc(CO)[nH]n4)cn4nccc34)cn2)C1 [Example 27, 2-((1 s,3r)-1-(4-(6-(5-(Hydroxymethyl)-1H-pyrazol-3-yl)pyrazolo[1,5-a]pyrazin-4-yl)-1H-pyrazol-1-yl)-3-methoxycyclobutyl)acetonitrile]
> 10000 nM	7 nM	174 nM	46 nM	71 nM	CO[C@H]1C[C@](CC#N)(n2cc(-c3nc(-c4cc(N)[nH]n4)cn4nccc34)cn2)C1 [Example 30, 2-((1r,3s)-1-(4-(6-(3-Amino-1H-pyrazol-5-yl)pyrazolo[1,5-a]pyrazin-4-yl)-1H-pyrazol-1-yl)-3-methoxycyclobutyl)acetonitrile]
> 10000 nM	17 nM	2250 nM	130 nM	339 nM	CO[C@H]1C[C@@](CC#N)(n2cc(-c3nc(-c4cc(C(N)=O)n[nH]4)cn4nccc34)cn2)C1 [Example 32]

More lines, now with the values behind:

SMILES	IC50 (JAK3)	IC50 (TYK2)	IC50 (JAK1)	IC50 [1]	IC50 (JAK2)
Cn1cc(-c2cn3nccc3c(-c3cnn([C@]4(CC#N)C[C@@H](C#N)C4)c3)n2)c(N)n1 [Example 23, (1r,3r)-3-(4-(6-(3-Amino-1-methyl-1H-pyrazol-4-yl)pyrazolo[1,5-a]pyrazin-4-yl)-1H-pyrazol-1-yl)-3-(cyanomethyl)cyclobutane-1-carbonitrile]	9410 nM	9 nM	431 nM	34 nM	26 nM
Cc1cnn2cc(-c3cnn(C)c3)nc(-c3cnn([C@]4(CC#N)C[C@@H](C#N)C4)c3)c12 [Example 25, (1r,3r)-3-(Cyanomethyl)-3-(4-(3-methyl-6-(1-methyl-1H-pyrazol-4-yl)pyrazolo[1,5-a]pyrazin-4-yl)-1H-pyrazol-1-yl)cyclobutane-1-carbonitrile]	> 10000 nM	23 nM	319 nM	59 nM	99 nM

From patent US10144738B2, “Pyrazolo[1,5-A]PYRAZIN-4-YL derivatives” (Pfizer Inc., priority 2016, dated 2018)
